Experimental findings from PubChem BioAssay AID2305 (GlaxoSmithKline (GSK), 2010) are described below.

SMILES strings stand for the structures.

In this experiment the test system is P. falciparum 3D7 growth, pLDH absorbance. The experiment is described as follows: P. falciparum 3D7 growth inhibition, dose response, strain 3D7 (AID 2305).

Usually IC50 stands for the concentration needed to halve the response being measured. A high value points to lower potency. `Cc1cc(N2CCCC2)nc(Nc2ccc(NC(=O)c3ccco3)cc2)n1`: the IC50 was 840 nM.
The value for `O=C(Nc1cccc(-c2ccc(-c3nc4ccccc4[nH]3)cc2)c1)c1cnn2cccnc12` was 1060 nM; that for `Cc1[nH]c(C)c(-c2ccc(Oc3cccc(C(F)(F)F)c3)cc2)c(=O)c1Br` was 10 nM.
Turning to `CN1CCN(c2ccnc3ccc(NC(=O)Nc4ccc5ccccc5c4)cc23)CC1`, the IC50 is 80 nM.
Next, `CCOc1cc2ncnc(Nc3ccc(OCc4ccccc4OC)c(OC)c3)c2cc1OCC`: 880 nM; `Cc1[nH]cnc1-c1cccc(NC(=O)c2cc3ccccc3s2)c1`: 210 nM.
Next, `CC(C)c1ccc(NC(=O)c2cccc(CN3CCCN(Cc4cccc(C#N)c4)CC3)c2)cc1`: 950 nM.
The value for `O=C(/C=C/c1ccc(Cl)c(Cl)c1)NCCCCCN1CCC(CCNC(=O)/C=C/c2cc(C(F)(F)F)ccc2F)CC1` was 770 nM; that for `O=C(Nc1ccc(Cl)cc1)c1cccc(CN2CCCN(Cc3cccc(O)c3)CC2)c1` was 960 nM; that for `Fc1ccc2nc(-c3ccc(-c4ccc(CNCc5ccccc5)cc4)cc3)[nH]c2c1` was 280 nM.
For `Cc1cc(OCCCN2CCCCC2C)ccc1NC(=O)COc1ccc(Cl)cc1C(=O)c1cc(Cl)cc(C#N)c1` (stereo unspecified), the IC50 was 980 nM.
The value for `COc1ccc(C(=O)CCC(=O)N(Cc2ccc(-c3ccc(CNCCc4ccc(S(C)(=O)=O)cc4)cn3)cc2)C2CCN(Cc3ccccc3)CC2)cc1F` was 440 nM; that for `Cc1nc(SCC(=O)N2CCCC2=O)c2c(C)c(C)sc2n1` was 170 nM.
In turn, `O=C1c2ccccc2C(=O)N1CCOc1c(Br)cc(Br)cc1CNCCCNc1cc(=O)c2ccccc2[nH]1` yielded an IC50 of 840 nM.
For `CC(C)c1ccc(NC(=O)Nc2ccc(CCNCCCc3ccccc3)cc2)cc1`, the IC50 is 760 nM.
`CCCN(CCC)c1nn2c(=O)c(C(=O)N3CCN(Cc4ccccc4)CC3)cnc2s1` yielded an IC50 of 1000 nM.
The value for `O=C(/C=C/c1cccc(OC(F)(F)F)c1)NCCCCCN1CCC(c2c[nH]c3ccccc23)CC1` was 960 nM.
For `Cc1cccc2[nH]c(-c3ccc(-c4cccc(NC(=O)Nc5cccc(C#N)c5)c4)cc3)nc12`, the IC50 was found to be 540 nM.
The value for `COc1ccc(C2(CNCC(O)c3cccc([N+](=O)[O-])c3)CCCC2)cc1OC` (stereo unspecified) was 890 nM.
Regarding `COc1ccc2nccc(NN=CC=Cc3ccccc3)c2c1`, the IC50 was 740 nM.
`O=C(Nc1ccc(-c2nc3ccccc3[nH]2)cc1)c1ccc(Cl)c([N+](=O)[O-])c1` yielded an IC50 of 800 nM.
`COc1cc(F)c2nccc([C@@H](O)CN3CC[C@@H](NC(=O)OCc4ccccc4)[C@@H](F)C3)c2c1`: the IC50 stood at 410 nM.
The value for `CCCCN1CC[C@@H](CCC(O)c2cc(OCCC)nc3ccc(OC)cc23)[C@@H](CC)C1` (stereo partly specified) was 360 nM.
With `CCOc1ccc2c(NN=Cc3ccc(F)cc3)cc(C)nc2c1`, the IC50 came to 580 nM.
Next, `Oc1ccc(-c2cc(-c3ccc(O)cc3)nc(-c3ccccc3)n2)cc1`: 780 nM.
Next, `CCOc1c(C)cc(C(F)(F)F)cc1CNCCCNc1cc(=O)c2ccccc2[nH]1`: 160 nM.
In the case of `Cc1nc(-c2nc(N3CCOCC3)ncc2-c2ccsc2)sc1C`, the IC50 is 320 nM.
Turning to `CNC(=O)/C=C/c1cc(NC(=O)Nc2cc(C)nc3c(F)cccc23)ccc1OC`, the IC50 came to 910 nM.
The value for `CS(=O)(=O)c1ccc(-c2cnc(N)c(-c3ccc(O)cc3)c2)cc1` was 1360 nM.
Next, `O=C(N[C@H]1CCCC[C@H]1C(=O)O)c1ccccc1`: 780 nM.
In the case of `c1ccc(Oc2ccc(Nc3ccnc4cc(-c5ccc(CNCCN6CCOCC6)o5)ccc34)cc2)nc1`, the IC50 turned out to be 1440 nM.
Next, `O=C(/C=C/c1ccc(Cl)c(Cl)c1)NCCCCCN1CCC(NC(=O)Nc2ccc(C(F)(F)F)cc2)CC1`: 750 nM.
The value for `c1cc(Nc2nc(-c3ccc(-c4csc(Nc5ccncc5)n4)cc3)cs2)ccn1` was 120 nM; that for `COc1cc(F)c2nccc([C@@H](O)CN3CCC(NCc4ccc5c(n4)NC(=O)CS5)CC3)c2c1` was 560 nM; that for `CC[C@H]1CN2CC[C@H]1C[C@H]2[C@H](O)c1cc(-c2ccc(SC)cc2)nc2ccc(OC)cc12` was 60 nM.
Next, `COC(=O)c1c(C#N)c(OC)cc(O)c1CSC[C@H](Nc1nc(-c2ccc([N+](=O)[O-])cc2)cs1)C(=O)NCCN1CCCCC1`: 1060 nM; `COc1cc(C(=O)Nc2cccc(-c3cn4ccc(C)cc4n3)c2)cc(OC)c1OC`: 760 nM.
In turn, `COc1ccc(C=NNc2cc(C)nc3c(C)cccc23)c2ccccc12` showed an IC50 of 220 nM.
The value for `Cc1sc2nc(CSc3ccccc3)nc(N3CCN(CC(=O)NC4CC4)CC3)c2c1C` was 460 nM; that for `Cc1nc2ccc3ccc(CNc4ccc(C#N)cc4)cc3c2c(=O)[nH]1` was 1440 nM; that for `OCCN1CCN(c2nc(Nc3cccc(F)c3)c3cnn(-c4ccccc4)c3n2)CC1` was 830 nM.
Compound `CCCCOc1cc(CNCCCCCCNCc2cc(OCCCC)cc3ccccc23)c2ccccc2c1` had an IC50 of 740 nM.
Next, `Fc1ccc2nc(-c3ccc(-c4ccc(CNCc5cnn(-c6ccccc6)n5)cc4)cc3)[nH]c2c1`: 540 nM; `COc1ccccc1CCNc1nc(C)cc(N[C@@H](Cc2ccccc2)C(=O)NCCOc2ccccc2)n1`: 1210 nM.
The value for `COc1ccc(CCN(C)CCCOc2ccc(NC(=O)COc3cccc4sc5ccccc5c(=O)c34)cc2)cc1OC` was 460 nM; that for `c1ccc2c(NCCCCCCCCCNc3c4ccccc4nc4ccccc34)c3ccccc3nc2c1` was 300 nM; that for `CCOc1ccc(C2CCN(CCCCNC(=O)c3ccc(NC(=O)c4ccc(Cl)cc4)cc3)CC2)c(CC)c1` was 790 nM.
Next, `CN(C)CCC(O)(c1ccc(Br)cc1)c1cccnc1` (stereo unspecified): 830 nM; `Cc1ccc(Oc2c(-c3ccccc3CN3CCCC3CN(C)C)cnn(C)c2=O)cn1` (stereo unspecified): 1160 nM.
In the case of `O=C(C=Cc1ccc(Cl)c(Cl)c1)NCCCCCN1CCC(CCCNS(=O)(=O)c2ccc(F)cc2)CC1`, the IC50 is 1020 nM.
As to `COc1ccc(CNCc2cccc(-c3csc(-c4nc5ccccc5[nH]4)c3)c2)cc1`, the IC50 was 650 nM.
Next, `COC(=O)c1ccc(CC(C)NCC(O)c2ccc(F)c(Cl)c2)cc1` (stereo unspecified): 860 nM; `COc1ccc2[nH]cc(C3CCN(CCCCCNC(=O)c4ccc(-c5ccccc5)cc4)CC3)c2c1`: 800 nM; `CC(=O)Nc1nc(C)c(-c2csc(Nc3ccc(Cl)cc3)n2)s1`: 260 nM.
Next, `COc1ccc2nccc([C@@H](O)CN3CCC(NCc4cc5cccnc5[nH]4)CC3)c2n1`: 960 nM; `NC(=NCC1CC1c1ccccc1)c1cccc(C(N)=NCC2CC2c2ccccc2)n1` (stereo unspecified): 1760 nM; `CC(CN(C)C)C(=O)Nc1cccc(-c2ccc(-c3nc4ccccc4[nH]3)cc2)c1` (stereo unspecified): 710 nM.
The value for `COc1cccc2cc(C(=O)N[C@@H](CC(C)C)C(=O)N[C@H](/C=N/N(C)C(=O)OC(C)(C)C)CC(=O)OC(C)(C)C)oc12` was 650 nM.
Take `Cc1cc2c(cc1Cl)N(C(=O)Nc1cc(F)cc(-c3cncnc3)c1)CC2`: the IC50 worked out at 380 nM.
`CNCc1cccc2[nH]c(-c3csc(Cc4cc(Cl)ccc4OCC(C)C)n3)nc12`: the IC50 was 720 nM.
The value for `O=C(Cc1ccccc1)NC1CCN(c2ccnc3cc(Cl)ccc23)C1` (stereo unspecified) was 800 nM.
Regarding `Cc1ccc(NC(=O)c2cccc(CN3CCCN(Cc4cccc(O)c4)CC3)c2)cc1F`, the IC50 turned out to be 710 nM.
Next, `O=C(O)C1Cc2c([nH]c3ccccc23)C(c2ccc(Cl)cc2Cl)N1` (stereo unspecified): 950 nM.
The value for `Cc1cnc(Nc2cccc(CCN3CCOCC3)c2)nc1NC(C)C` was 740 nM; that for `COc1ccc(-c2cccc(NC(=O)c3cccc(C#N)c3)c2)cc1CN(C)CCN(C)C` was 310 nM; that for `COc1ccc2ncc(F)c(NC(=O)C3CCC(NCc4cc5cc(F)cc(F)c5[nH]4)CC3)c2n1` (stereo unspecified) was 1090 nM.
As to `CC(C)C[C@H](NC(=O)c1ccc(OCCN2CCOCC2)cc1)C(=O)NC(/C=N/N1CCCC1=O)C(C)C` (stereo partly specified), the IC50 is 250 nM.
For the compound `Cn1nc(C(=O)N2CCC(c3[nH]ncc3Cc3ccccc3)CC2)c2ccccc2c1=O`, the IC50 was 300 nM.
The value for `Cn1nc(-c2ccc(CNC3CCc4ccccc43)cc2)c2cnc(NCCCN3CCCC3)nc21` (stereo unspecified) was 1110 nM; that for `O=C(Nc1cccc(F)c1)N[C@H]1CCN(CCCCCNC(=O)[C@@H]2C[C@H]2c2ccc(Cl)c(Cl)c2)C1` was 990 nM.
As for `COc1ccc(-c2csc3ncnc(Cl)c23)cc1OC`, the IC50 amounted to 770 nM.
The value for `CCCCCCCn1c2c(c(=N)c3c1CCC3)CCCC2` was 100 nM; that for `O=C(Nc1ccc(-c2ccccc2)c(OCCN2CCNCC2)c1)c1ccc(-c2ccc(Cl)cc2)cc1` was 780 nM.
For the compound `CN1CCN(c2nsc3ccc(-c4ccc(OCCN5CCCC5)cc4)cc23)CC1`, the IC50 came out at 830 nM.
The value for `O=C(/C=C/c1ccc(Cl)cc1)NCCCCCN1CCCC(C(=O)Nc2ccc(Cl)cc2)C1` (stereo unspecified) was 1050 nM.
`CCOC(=O)c1ccc(NC(=O)N[C@@H](Cc2ccc(O)cc2)C(=O)NC2CCN(Cc3ccc4c(c3)OCO4)CC2)cc1` registered an IC50 of 1060 nM.
Next, `CCOc1c(CNCCCNc2cc(=O)c3ccccc3[nH]2)cc(I)cc1C(C)(C)C`: 700 nM; `O=S(=O)(NCCN1CCCC1)c1cccc(-c2ccc(CNCc3ccc(F)cc3)cc2)c1`: 230 nM; `FC(F)(F)c1ccc2nccc(NN=CC=Cc3ccccc3)c2c1`: 1020 nM.
The value for `CCC(C)(C)NC(=O)C(c1cccc(OC)c1)N(C(=O)CNC(=O)c1cccs1)c1ccc2c(c1)OCCO2` (stereo unspecified) was 830 nM; that for `COc1ccccc1/C=C/C(=O)N(C)C1CCN(CCCCCNC(=O)/C=C/c2ccc(Cl)c(Cl)c2)C1` (stereo unspecified) was 870 nM; that for `COc1cc(OC)c(NC(=O)Nc2ccnc3ccccc23)cc1Cl` was 750 nM.
The value for `CCN(CCCN1CCCCC1)c1cc(C)nc(Nc2ccc(Cl)cc2C)n1` was 730 nM; that for `O=S(=O)(Nc1cccc(CCN2CCC(N3CCCCC3)CC2)c1)c1cccc2cccnc12` was 850 nM; that for `O=C(/C=C/C=C/c1ccc(Cl)c(Cl)c1)NCCCCCN1CCCC2CCCCC21` (stereo unspecified) was 950 nM.
The compound `COc1ccc(NC(=O)C=Cc2ccc(Oc3ccccc3Cl)c([N+](=O)[O-])c2)cc1OCCN(C(C)C)C(C)C` came in with an IC50 of 880 nM.
